Data taken from patent publication US20240415805A1 (priority 2023, published 2024).
Entries after “also recorded” stand apart in the source; their conditions may differ.

Assays:
Pg 33277 vesicles = settings: 30 μM; previously reported; cited from earlier work
Pg 33277 = test: Antibiotic protection assay: invasion of Pg cells into human primary oral keratinocytes; assay type: cell-based; settings: Porphyromonas gingivalis, 33277, Keratinocyte, read-out: Pg inhibited from entry into HOKs
Protocol: Inhibition of Pg cells invasion by GM. The ability of Pg to invade oral epithelial cells was determined using an antibiotic protection assay as described^28. Human primary oral keratinocytes (HOKs, 5×10^4 cells, ScienCell® Research Laboratories) were seeded in a 24-well plate. After incubating with Pg 33277 for 1 h, HOKs were continually cultured for another 4 h in the presence of antibiotics (gentamicin (300 μg/ml) and metronidazole (200 μg/ml)) to eliminate extracellular bacteria. The HOKs were then lysed, and the internalized bacteria were plated on TSB blood agar plates. The plates were incubated anaerobically at 37° C. for 7 days, and CFUs of Pg were enumerated. […] In the presence of 40 nM GM, more than 95% of Pg were inhibited from entry into HOKs. In addition, the role of GM in Pg re-entry was tested. After exposure to Pg cells for 1 h and then antibiotic treatment for 4 h, HOKs were continuously cultured for 24 h in the presence of GM (20 nM), antibiotics, or GM and antibiotics. Intracellular Pg was determined as described^28. As expected, intracellular Pg cells moved in and out of the HOKs.

HOKs = test: HOK cell viability (Promega CellTiter-Glo); assay type: cell-based, human; settings: 48 h
Protocol: Each bar represents the mean±standard deviation of luminescence levels representing relative the number of viable cells. Data are the mean of at least three independent experiments.
To examine potential cytotoxic effects of GM, HOKs were cultured in the presence of a range of GM from 0 to 1,000 nM for 48 h and the number of viable cells in the culture was determined using Promega™ CellTiter-Glo™.

| Compound | Pg vesicle invasion (Pg 33277 vesicles) | inhibition at 0.04 µM (Pg 33277) | cell viability of HOKs (HOKs; GM 0 to 1,000 nM, as high as luM) | highest concentration without viability effect relative to the concentration that inhibits Pg invasion (HOKs; HOKs) |
| --- | --- | --- | --- | --- |
| O=C(N/N=C/c1ccc(O)c(O)c1)c1cc2ccccc2cc1O [dynasore] | inhibited the vesicle invasion |  |  |  |
| C=C(C)[C@@]12C[C@@H](COC(=O)c3ccccc3)[C@@]34OC5(O[C@@H]1[C@@H]3[C@@H]1O[C@]1(CO)[C@@H](O)[C@@]1(O)[C@H]4[C@H]([C@H](C)[C@@H]1OC(=O)c1ccccc1)[C@H](C)CCCCCC[C@H]5O)O2 [GM, gnidimacrin] |  | > 95% | does not affect host cell viability; also recorded: no impact | approximately 50 times |
